Results taken from patent publication US11781160B2, “Methods for the production of methacrylates” (priority 2018, dated 2023).

Key:
[1] = system: E. coli BW25113 isolate 20-marR(V84G) rpoC(R1075C) ompR(R15S) acrR(indels); experiment: Growth kinetics of isolated strain 20 with 20% v/v BMA
[2] = system: E. coli BW 25113; experiment: Growth of E. coli BW25113 (wild type) with BMA in M9 minimal medium
[3] = system: E. coli BW25113 isolate 2-rob(R156H) rpoC(L361R) ilvN(C41Y) ygbK(A294E) IpxM(168_185del); experiment: Growth kinetics of isolated strain 2 with 20% v/v BMA
[4] = system: gene transcription in strain 23; experiment: Transcriptome analysis with added BMA, strain 23
Protocol: (§1) Transcriptome analysis was carried out to characterize transcriptional activity in mutant microorganisms using standard methods.
(§2) Sample Preparation • 1) Streak strains onto fresh MSX agar (15 g/L) plates directly from the cryostocks and incubate overnight at 37° C. • 2) Isolate single colonies and inoculate pre-cultures in MSX, using 50 ml shake flasks. Incubate overnight at 37° C. and 250 rpm. • 3) Inoculate cultures in MSX to an initial OD600 of 0.05, using 250 mL pyrex shake flasks with 24/29 neck join. Incubate at 37° C. and 250 rpm. Do 4 biological replicates (3 replicates for sequencing plus one backup)—4 flasks per strain. • 4) Seal shake flasks with sterile Suba seals. To monitor OD, take samples using a sterile syringe and needle after first swabbing the Suba seals with 70% ethanol. Monitor OD. • 5) When OD reaches 0.3, collect first sample for RNA extraction (“before” sample) into a pre-chilled falcon. Keep samples on ice. • 6) Immediately after, add 20% (v/v) BMA. Re-incubate cultures. • 7) Quickly process the samples according to the RNeasy kit protocol, until step 6 of protocol 1. Always keep samples on ice and store it at −80° C. until further use, if possible, flash freeze in liquid nitrogen it before storing. • 8) One hour after the first sample collection/BMA addition, collect the second sample for RNA extraction (“after” sample). Proceed as explained before. • 9) Continue to monitor the OD until the cultures reach 24 h. • To summarise, each strain tested will have 6 samples to send for sequencing, 3 collected right before the addition and 3 collected one hour after, plus 1 “back-up” for before and after, in case something goes wrong during extraction (8 samples total). Besides the WT strain with the addition of BMA, samples were also collected from a WT culture with no BMA, one hour after reaching OD of 0.3, as a control.
(§3) Transcription was compared for a double mutant and the wild-type in the presence and absence of BMA relative to the level in the wild type in the absence of BMA. For the avoidance of doubt the level in the table is the ratio of the level in the strain under the BMA exposure relative to the level in the wild type in the absence of added BMA.

[5] = system: gene transcription in strain 2; experiment: Transcriptome analysis with added BMA, strain 2
Protocol: as §1, §2, §3

[6] = system: E. coli MG1655; experiment: Growth in MSX medium with 20% (v/v) BMA, wild type; format: cell-based, Escherichia coli
[7] = system: E. coli MG1655 soxR(R20H)acrR(T32fs); experiment: Growth in MSX medium with 20% (v/v) BMA, double mutant; format: cell-based, Escherichia coli
[8] = system: E. coli MG1655 soxR(R20H)acrR(V29G); experiment: as above; format: cell-based, Escherichia coli
[9] = system: E. coli MG1655 acrR(T32fs); experiment: Growth in MSX medium with 20% (v/v) BMA, single mutation strain; format: cell-based, Escherichia coli; conditions: 20% (v/v) BMA added immediately after inoculation
[10] = system: E. coli BW25113 isolate 5-soxR(Leu139X), 580116(G > T) acrR(indels); experiment: Growth kinetics of isolated strain 5 with 20% v/v BMA
[11] = system: E. coli BW25113 ΔsoxR; experiment: Growth in MSX medium with 20% (v/v) BMA, knock-out strain; format: cell-based, Escherichia coli; conditions: 20% (v/v) BMA added immediately after inoculation
[12] = system: gene transcription in strain 18; experiment: Transcriptome analysis with added BMA, strain 18
Protocol: as §1, §2, §3

[13] = BMA concentration increased further to 20% v/v
[14] = Wild Type, 0.05% BMA (v/v), Table 2.2
[15] = Wild Type, 0.1% BMA (v/v), Table 2.2
[16] = 20% (v/v) BMA added during mid-exponential phase
[17] = 20% (v/v) BMA added immediately after inoculation

C=C(C)C(=O)OCCCC [BMA, butyl 2-methylprop-2-enoate]
Growth rate [1]: 0.719 ± 0.041 h⁻¹ | Lag time [1]: 5 h | Max cell concentration [1]: 0.589 ± 0.012 g/L | Growth rate ([2]; 0.01% v/v BMA): 0.617 ± 0.009 h⁻¹ | Lag phase ([2]; 0.01% v/v BMA): 2 h | Max cell concentration ([2]; 0.01% v/v BMA): 1.365 ± 0.120 g/L | Growth rate ([2]; 0.05% v/v BMA): 0.517 ± 0.014 h⁻¹ | Lag phase ([2]; 0.05% v/v BMA): 4 h | Max cell concentration ([2]; 0.05% v/v BMA): 1.269 ± 0.074 g/L | Growth rate ([2]; 0.1% v/v BMA): 0.519 ± 0.010 h⁻¹ | Lag phase ([2]; 0.1% v/v BMA): 12 h | Max cell concentration ([2]; 0.1% v/v BMA): 1.335 ± 0.074 g/L | Consistency of growth [2, 13]: growth was inconsistent | Incubation time after which cell growth was observed [2, 13]: 24 to 36 h | BMA concentration that inhibits the growth of E. coli ([2]; M9 minimal medium, 37° C.): above 0.05 % v/v | Growth rate [2, 14]: 0.517 ± 0.014 h⁻¹ | Lag time [2, 14]: 4 h | Max cell concentration [2, 14]: 1.269 ± 0.074 g/L | Growth rate [2, 15]: 0.519 ± 0.010 h⁻¹ | Lag time [2, 15]: 12 h | Max cell concentration [2, 15]: 1.335 ± 0.074 g/L | Time after inoculation at which significant growth was exhibited ([2]; […], same conditions): 12 h | Growth rate [3]: 0.532 ± 0.028 h⁻¹ | Lag time [3]: 6 h | Max cell concentration [3]: 0.651 ± 0.052 g/L | IdhA transcription level relative to wild type without BMA [4]: 28.20 | acrA transcription level relative to wild type without BMA [4]: 6.50 | acrB transcription level relative to wild type without BMA [4]: 7.66 | adiY transcription level relative to wild type without BMA [4]: 6.73 | ariR transcription level relative to wild type without BMA [4]: 14.82 | asr transcription level relative to wild type without BMA [4]: 123.20 | bssR transcription level relative to wild type without BMA [4]: 71.61 | ibpA transcription level relative to wild type without BMA [4]: 31.35 | ibpB transcription level relative to wild type without BMA [4]: 41.67 | narG transcription level relative to wild type without BMA [4]: 42.52 | nirB transcription level relative to wild type without BMA [4]: 25.46 | nirD transcription level relative to wild type without BMA [4]: 25.17 | pspA transcription level relative to wild type without BMA [4]: 32.81 | pspB transcription level relative to wild type without BMA [4]: 27.16 | pspD transcription level relative to wild type without BMA [4]: 28.18 | pspc transcription level relative to wild type without BMA [4]: 28.45 | raiA transcription level relative to wild type without BMA [4]: 31.13 | rmf transcription level relative to wild type without BMA [4]: 8.80 | soxS transcription level relative to wild type without BMA [4]: 30.40 | spy transcription level relative to wild type without BMA [4]: 4.79 | ybfA transcription level relative to wild type without BMA [4]: 29.99 | ybhG transcription level relative to wild type without BMA [4]: 20.82 | ybiH transcription level relative to wild type without BMA [4]: 16.75 | ydgU transcription level relative to wild type without BMA [4]: 50.45 | yhjx transcription level relative to wild type without BMA [4]: 596.44 | yibT transcription level relative to wild type without BMA [4]: 42.63 | ymgA transcription level relative to wild type without BMA [4]: 8.84 | ymgC transcription level relative to wild type without BMA [4]: 7.42 | ynfM transcription level relative to wild type without BMA [4]: 41.92 | yohk transcription level relative to wild type without BMA [4]: 10.04 | IdhA transcription level relative to wild type without BMA [5]: 11.32 | acrA transcription level relative to wild type without BMA [5]: 7.33 | acrB transcription level relative to wild type without BMA [5]: 6.68 | adiY transcription level relative to wild type without BMA [5]: 5.37 | ariR transcription level relative to wild type without BMA [5]: 35.30 | asr transcription level relative to wild type without BMA [5]: 95.27 | bssR transcription level relative to wild type without BMA [5]: 15.30 | ibpA transcription level relative to wild type without BMA [5]: 20.83 | ibpB transcription level relative to wild type without BMA [5]: 84.03 | narG transcription level relative to wild type without BMA [5]: 11.38 | nirB transcription level relative to wild type without BMA [5]: 8.77 | nirD transcription level relative to wild type without BMA [5]: 4.33 | pspA transcription level relative to wild type without BMA [5]: 15.40 | pspB transcription level relative to wild type without BMA [5]: 11.46 | pspD transcription level relative to wild type without BMA [5]: 11.22 | pspc transcription level relative to wild type without BMA [5]: 11.88 | raiA transcription level relative to wild type without BMA [5]: 14.09 | rmf transcription level relative to wild type without BMA [5]: 7.05 | soxS transcription level relative to wild type without BMA [5]: 4.10 | spy transcription level relative to wild type without BMA [5]: 22.92 | ybfA transcription level relative to wild type without BMA [5]: 18.45 | ybhG transcription level relative to wild type without BMA [5]: 6.87 | ybiH transcription level relative to wild type without BMA [5]: 8.65 | ydgU transcription level relative to wild type without BMA [5]: 31.80 | yhjx transcription level relative to wild type without BMA [5]: 7.35 | yibT transcription level relative to wild type without BMA [5]: 36.87 | ymgA transcription level relative to wild type without BMA [5]: 35.59 | ymgC transcription level relative to wild type without BMA [5]: 42.36 | ynfM transcription level relative to wild type without BMA [5]: 14.42 | yohk transcription level relative to wild type without BMA [5]: 8.45 | Growth in the presence of BMA ([6]; 20% (v/v) BMA added immediately after inoculation, WT): unable to grow | Time after which growth was observed ([6]; MSX medium containing 20% (v/v) BMA, 30 mL vials, 37° C., 250 rpm): 72 h | Tolerance to BMA [7, 16]: enhanced tolerance to BMA compared to the soxR(R20H) mutation alone | Growth compared with the single mutant with the soxR mutation [7, 17]: able to grow better than the single mutant | Growth in the presence of BMA [7, 17]: able to grow | Tolerance to BMA [8, 16]: enhanced tolerance to BMA compared to the soxR(R20H) mutation alone | Growth compared with the single mutant with the soxR mutation [8, 17]: able to grow better than the single mutant | Growth in the presence of BMA [8, 17]: able to grow | Growth in the presence of BMA [9]: able to grow | Growth rate [10]: 0.625 ± 0.052 h⁻¹ | Lag time [10]: 5 h | Max cell concentration [10]: 0.597 ± 0.096 g/L | Growth in the presence of BMA [11]: unable to grow | IdhA transcription level relative to wild type without BMA [12]: 56.74 | acrA transcription level relative to wild type without BMA [12]: 6.47 | acrB transcription level relative to wild type without BMA [12]: 10.12 | adiY transcription level relative to wild type without BMA [12]: 21.13 | ariR transcription level relative to wild type without BMA [12]: 25.19 | asr transcription level relative to wild type without BMA [12]: 74.22 | bssR transcription level relative to wild type without BMA [12]: 134.14 | ibpA transcription level relative to wild type without BMA [12]: 74.55 | ibpB transcription level relative to wild type without BMA [12]: 158.35 | narG transcription level relative to wild type without BMA [12]: 25.46 | nirB transcription level relative to wild type without BMA [12]: 23.98 | nirD transcription level relative to wild type without BMA [12]: 34.98 | pspA transcription level relative to wild type without BMA [12]: 20.71 | pspB transcription level relative to wild type without BMA [12]: 20.94 | pspD transcription level relative to wild type without BMA [12]: 18.60 | pspc transcription level relative to wild type without BMA [12]: 21.37 | raiA transcription level relative to wild type without BMA [12]: 44.16 | rmf transcription level relative to wild type without BMA [12]: 20.96 | soxS transcription level relative to wild type without BMA [12]: 1.17 | spy transcription level relative to wild type without BMA [12]: 4.36 | ybfA transcription level relative to wild type without BMA [12]: 24.95 | ybhG transcription level relative to wild type without BMA [12]: 18.85 | ybiH transcription level relative to wild type without BMA [12]: 12.75 | ydgU transcription level relative to wild type without BMA [12]: 28.47 | yhjx transcription level relative to wild type without BMA [12]: 251.44 | yibT transcription level relative to wild type without BMA [12]: 83.81 | ymgA transcription level relative to wild type without BMA [12]: 11.97 | ymgC transcription level relative to wild type without BMA [12]: 12.62 | ynfM transcription level relative to wild type without BMA [12]: 55.40 | yohk transcription level relative to wild type without BMA [12]: 14.54
